The values below come from US10849861B2, “Pharmaceutical compound for treating colorectal cancer” (Everest Pharm. Industrial Co., LTD., priority 2018, dated 2020).

In one assay the test system is lymphoma cell line E.G7. In words: Cell viability by MTT assay, E.G7. Format: cell-based. The conditions noted are these: E.G7 lymphoma cells, 24 hours with drug. The text has this:
(§1) The cell line HCT-116 is an adult colorectal cancer cell, and its cells are TGF-β1 and TGF-β2, which are the targeted cells commonly used in preclinical colorectal cancer; the cell line DLD-1 is a […] human colorectal cancer. The cells, which are cancer cells that have invaded the lymph nodes in the late stage, have rapid metastatic growth and are also the targeted cells commonly used in preclinical studies of colorectal cancer; the cell line MCF-7 is an adult […] mastocarcinoma cell with Tx-4 oncogene, which is a targeted cell commonly used in preclinical studies of mastocarcinoma. The cell line A549 is an adult […] lung cancer cell, and its cell characteristic is the ability to synthesize lecithin. Pre-clinical studies of targeted cells are commonly used in lung cancer; cell line EG7 is a lymphoma cell, and its cells with antigen OVA are the targeted cells commonly used in cancer immunotherapy for preclinical studies; cell line L929 is fibroblast, which is the specified cell for preclinical studies of the cytotoxicity standard assay.
(§2) Cell Viability by MTT Assay […]
(§3) 4) The culture solution is extracted, and DMSO is added to dissolve the purple crystals, and the light absorption value is measured at a wavelength of 570 nm.
(§4) 5) The cell survival rate and IC50 of the drug are calculated by comparing the values of the control group with the light absorption values of different groups.
A general note: Tetrazolium dyes change colour on reduction, which living cells bring about.

Assay [1] concerns human lung cancer cell line A549. In words: Cell viability by MTT assay, A549. Format: cell-based. The following applies: A549 lung cancer cells, 24 hours with drug.
Excerpt: as §1, §2, §3, §4

The test system of assay [2] is human colorectal cancer cell line DLD-1. Description: Cell viability by MTT assay, DLD-1. The following applies: DLD-1 colorectal cancer cells, 24 hours with drug. Format: cell-based.
Excerpt: as §1, §2, §3, §4

For assay [3], the system named is human colorectal cancer cell line HCT-116. Description: Cell viability by MTT assay, HCT-116. Format: cell-based.
Excerpt: as §1, §2, §3, §4

Assay [4] relates to human breast cancer cell line MCF-7. In words: Cell viability by MTT assay, MCF-7. Format: cell-based. The conditions noted are these: MCF7, MCF-7 breast cancer cells, 24 hours with drug.
Excerpt: as §1, §2, §3, §4

The subject of assay [5] is human colorectal cancer cell (HT-29) tumors. In words: Animal assay: HT-29 colorectal tumor growth in nu/nu mouse. Format: in vivo. The following applies: 10 mg/kg tail vein, 2 times per week, HT-29 in nu/nu mouse. As to the method:
The mouse is used as a model organism to observe the inhibition growth of TG1 on colorectal cancer tumors.
1) The human colorectal cancer cell (HT-29) is implanted in the back of mouse (nu/nu mouse), and the tumors are grown to about 250 mm^3 for grouping.
2) The mice are divided into 3 groups (untreated group, treatment group TG1 and clinical anticancer drug Irinotecan of treatment group), 8 mice in each group.
3) The treatment group TG1 and Irinotecan are administered at a concentration of 10 mg/kg, and the drug is administered in the tail vein at a frequency of 2 times per week.
4) Observe the tumor volume growth, the tumor volume calculation formula is: length×width×width×0.5.

Assay [6] concerns fibroblast cell line L929. In words: Cell viability by MTT assay, L929. Format: cell-based. The conditions noted are these: Mus musculus, L929 fibroblast cells, 24 hours with drug.
Excerpt: as §1, §2, §3, §4

Assay [7] has as its system human colorectal cancer (Caco2, SW480, HCT116). The following applies: Saunier et al. 2017; cited from earlier work.

Consider `Oc1ccc(/C=C/c2cc(O)cc(O)c2O)cc1` [TG1, 2,3,5, 4′-tetrahydroxy-trans-stilbene], for which the IC50 was found to be 180 µM in the assay on lymphoma cell line E.G7; 63 µM in assay [1]; 0.056 µM in assay [2]; 0.031 µM in assay [3] (Homo sapiens, HCT-116 colorectal cancer cells, MTT assay, 24 hours with drug); 190 µM in assay [4]; 255 µM in assay [6]. Further, in assay [3] (colorectal cancer cells versus other cells, from IC50 values of Table 1), the “ability to poison colorectal cancer cells relative to other cells” value is reported as 1000-6000 times. Besides, the mean tumor volume in assay [5] (10th day) is recorded as 291 mm^3. Besides, the average tumor volume in assay [5] (15th day) came to 300 mm^3; in assay [5] (20th day), 461 mm^3.
Regarding `Oc1ccc(C=Cc2cc(O)cc(O)c2)cc1` [resveratrol], the “ability to inhibit cancer cells” value in assay [7] is given as “no any ability to inhibit cancer cells”.

Broadly, the IC50 is the concentration that inhibits the measured activity by half. Low readings indicate greater potency in that assay, high ones weaker potency in that assay.
